Measured values published in PubChem BioAssay AID2060509 (Molecular Pharmacology Branch, DTP, NCI, 2025).

Tested on: 485176-168-R4-J1-PDC spheroids with HUVEC/MSC, viability
Test: Anticancer human tumor 485176-168-R4-J1-PDC patient-derived pancreatic adenocarcinoma cell line growth inhibition [GQUAD]
Conditions: for IC50: curve of first compound; for viability, T/C: stronger effect = lower value
How it was run: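 Tumor cells were grown as complex spheroids with HUVEC endothelial cells and mesenchymal stem cells as stroma. G-quadruplex stabilizers were combined with targeted agents over half-log dilutions from near the clinical Cmax, or from 10 microM.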

[1] = second compound 0.0316 µM, first compound 0.0316 µM
[2] = second compound 0.0316 µM, first compound 0.1 µM
[3] = second compound 0.0316 µM, first compound 0.316 µM
[4] = second compound 0.0316 µM, first compound 1 µM
[5] = second compound 0.0316 µM, first compound 3.16 µM
[6] = second compound 0.0316 µM, first compound 10 µM
[7] = second compound 0.1 µM, first compound 0.0316 µM
[8] = second compound 0.1 µM, first compound 0.1 µM
[9] = second compound 0.1 µM, first compound 0.316 µM
[10] = second compound 0.1 µM, first compound 1 µM
[11] = second compound 0.1 µM, first compound 3.16 µM
[12] = second compound 0.1 µM, first compound 10 µM
[13] = second compound 0.316 µM, first compound 0.0316 µM
[14] = second compound 0.316 µM, first compound 0.1 µM
[15] = second compound 0.316 µM, first compound 0.316 µM
[16] = second compound 0.316 µM, first compound 1 µM
[17] = second compound 0.316 µM, first compound 3.16 µM
[18] = second compound 0.316 µM, first compound 10 µM
[19] = second compound 1 µM, first compound 0.0316 µM
[20] = second compound 1 µM, first compound 0.1 µM
[21] = second compound 1 µM, first compound 0.316 µM
[22] = second compound 1 µM, first compound 1 µM
[23] = second compound 1 µM, first compound 3.16 µM
[24] = second compound 1 µM, first compound 10 µM
[25] = second compound 3.16 µM, first compound 0.0316 µM
[26] = second compound 3.16 µM, first compound 0.1 µM
[27] = second compound 3.16 µM, first compound 0.316 µM
[28] = second compound 3.16 µM, first compound 1 µM
[29] = second compound 3.16 µM, first compound 3.16 µM
[30] = second compound 3.16 µM, first compound 10 µM
[31] = second compound 10 µM, first compound 0.0316 µM
[32] = second compound 10 µM, first compound 0.1 µM
[33] = second compound 10 µM, first compound 0.316 µM
[34] = second compound 10 µM, first compound 1 µM
[35] = second compound 10 µM, first compound 3.16 µM
[36] = second compound 10 µM, first compound 10 µM
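Also: spheroids exposed to compounds for seven days before readout.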
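For viability, T/C in this document: percent viability relative to DMSO vehicle control wells as 100%.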

Work on CC(C)n1c(=O)n(C)c2cnc3cc(F)c(-c4ccc(OCCCN5CCCCC5)nc4)cc3c21 + Cc1[nH]c2ccc(F)cc2c1-c1nc2c3cccnc3c3ncccc3c2[nH]1 yielded an IC50 (second compound 0.0316 µM) greater than 10 µM, an IC50 (second compound 0.1 µM) greater than 10 µM and an IC50 (second compound 0.316 µM) greater than 10 µM. For the same compound, the IC50 (second compound 1 µM) was greater than 10 µM, the IC50 (second compound 3.16 µM) was greater than 10 µM and the IC50 (second compound 10 µM) was greater than 10 µM. For the same compound, the viability, T/C [1] was 106%, the viability, T/C [2] was 78.3% and the viability, T/C [3] was 89.2%. For the same compound, the viability, T/C [4] was 87.8%, the viability, T/C [5] was 85.1% and the viability, T/C [6] was 71.2%. The viability, T/C [7] was 82.6%, the viability, T/C [8] was 103% and the viability, T/C [9] was 77.7%. For the same compound, the viability, T/C [10] was 95.6%, the viability, T/C [11] was 93.8% and the viability, T/C [12] was 99.2%. The viability, T/C [13] was 92%, the viability, T/C [14] was 82.8% and the viability, T/C [15] was 91.1%. It also gave a viability, T/C [16] of 88.7%, a viability, T/C [17] of 80.4% and a viability, T/C [18] of 85.2%. The viability, T/C [19] was 80.8%, the viability, T/C [20] was 89.6% and the viability, T/C [21] was 81.7%. It also gave a viability, T/C [22] of 84.3%, a viability, T/C [23] of 99.3% and a viability, T/C [24] of 77.2%. The viability, T/C [25] was 89.2%, the viability, T/C [26] was 82.4% and the viability, T/C [27] was 84.4%. For the same compound, the viability, T/C [28] was 85%, the viability, T/C [29] was 76.8% and the viability, T/C [30] was 64%. The viability, T/C [31] was 79.1%, the viability, T/C [32] was 78.8% and the viability, T/C [33] was 87.4%. For the same compound, the viability, T/C [34] was 76.5%, the viability, T/C [35] was 86% and the viability, T/C [36] was 64.6%.

CC1COCCN1c1cc(C2(O)CC3CCC(C2)O3)c2cnn(-c3ccn[nH]3)c2n1 (stereo unspecified) + Cc1[nH]c2ccc(F)cc2c1-c1nc2c3cccnc3c3ncccc3c2[nH]1 showed an IC50 (second compound 0.0316 µM) of 0.0719 µM, an IC50 (second compound 0.1 µM) of 0.0679 µM and an IC50 (second compound 0.316 µM) of 0.118 µM. It also gave an IC50 (second compound 1 µM) of 0.0675 µM, an IC50 (second compound 3.16 µM) of 0.0466 µM and an IC50 (second compound 10 µM) of 0.0599 µM. It also gave a viability, T/C [1] of 67.4%, a viability, T/C [2] of 43% and a viability, T/C [3] of 17.3%. The viability, T/C [4] was 10.1%, the viability, T/C [5] was 11.5% and the viability, T/C [6] was 7.63%. It also gave a viability, T/C [7] of 66.5%, a viability, T/C [8] of 41.6% and a viability, T/C [9] of 14.1%. The viability, T/C [10] was 8.96%, the viability, T/C [11] was 12% and the viability, T/C [12] was 8.29%. The viability, T/C [13] was 56.8%, the viability, T/C [14] was 55.5% and the viability, T/C [15] was 16.6%. It also gave a viability, T/C [16] of 8.98%, a viability, T/C [17] of 11.9% and a viability, T/C [18] of 8.2%. The viability, T/C [19] was 61.8%, the viability, T/C [20] was 44% and the viability, T/C [21] was 19.3%. The viability, T/C [22] was 12.1%, the viability, T/C [23] was 10.7% and the viability, T/C [24] was 8.42%. For the same compound, the viability, T/C [25] was 57.6%, the viability, T/C [26] was 35% and the viability, T/C [27] was 17.2%. The viability, T/C [28] was 9.84%, the viability, T/C [29] was 11.1% and the viability, T/C [30] was 8.07%. For the same compound, the viability, T/C [31] was 64.1%, the viability, T/C [32] was 38.7% and the viability, T/C [33] was 13.5%. The viability, T/C [34] was 11.5%, the viability, T/C [35] was 10.8% and the viability, T/C [36] was 8.33%.

Compound O=C(c1cc(Cc2n[nH]c(=O)c3ccccc23)ccc1F)N1CCN(C(=O)C2CC2)CC1 + Cc1[nH]c2ccc(F)cc2c1-c1nc2c3cccnc3c3ncccc3c2[nH]1 has an IC50 (second compound 0.0316 µM) greater than 10 µM, an IC50 (second compound 0.1 µM) greater than 10 µM and an IC50 (second compound 0.316 µM) greater than 10 µM. It also gave an IC50 (second compound 1 µM) greater than 10 µM, an IC50 (second compound 3.16 µM) greater than 10 µM and an IC50 (second compound 10 µM) greater than 10 µM. The viability, T/C [1] was 99.9%, the viability, T/C [2] was 75.3% and the viability, T/C [3] was 85.6%. The viability, T/C [4] was 80.5%, the viability, T/C [5] was 91.2% and the viability, T/C [6] was 69.9%. For the same compound, the viability, T/C [7] was 82.6%, the viability, T/C [8] was 93.9% and the viability, T/C [9] was 90.3%. For the same compound, the viability, T/C [10] was 106%, the viability, T/C [11] was 83.2% and the viability, T/C [12] was 74.9%. For the same compound, the viability, T/C [13] was 93.8%, the viability, T/C [14] was 90.5% and the viability, T/C [15] was 94.6%. The viability, T/C [16] was 95.6%, the viability, T/C [17] was 77.8% and the viability, T/C [18] was 77.3%. It also gave a viability, T/C [19] of 92.8%, a viability, T/C [20] of 78.9% and a viability, T/C [21] of 88.1%. It also gave a viability, T/C [22] of 86.4%, a viability, T/C [23] of 101% and a viability, T/C [24] of 68.8%. For the same compound, the viability, T/C [25] was 91.4%, the viability, T/C [26] was 89.2% and the viability, T/C [27] was 85.3%. It also gave a viability, T/C [28] of 77.6%, a viability, T/C [29] of 88.1% and a viability, T/C [30] of 62.5%. It also gave a viability, T/C [31] of 78.5%, a viability, T/C [32] of 85.3% and a viability, T/C [33] of 70.4%. It also gave a viability, T/C [34] of 77.1%, a viability, T/C [35] of 80% and a viability, T/C [36] of 57.5%.
